US12077503B2, “Substituted cyclic amides and their use as herbicides” (FMC CORPORATION, priority 2015, dated 2024)

What was measured:
Format in all cases: in vivo
[1] = tested on: sedge, umbrella (small-flower umbrella sedge, Cyperus difformis); assay: Test B flooded paddy test; settings: Cyperus difformis, 250 g ai/ha, Flood; 0 to 100 scale where 0 is no effect and 100 is complete control; read-out: Sedge, Umbrella plant response rating
Procedure, shortened: (§1)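 Flooding to 3 cm over soil accompanied treatment, which consisted of adding compound to the standing water around 2-leaf plants; depth was then maintained. Visual assessment versus controls followed at 13 to 15 d (scale 0–100, 0 meaning no effect).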

rice (Oryra sativa) = assay: Test B flooded paddy test; settings: Oryza sativa, 250 g ai/ha, Flood; 0 to 100 scale where 0 is no effect and 100 is complete control; read-out: Rice plant response rating
Procedure, shortened: as §1

[2] = tested on: barnyardgrass (Echinochloa crus-galli); assay: Test B flooded paddy test; settings: Echinochloa crus-galli, 250 g ai/ha, Flood; 0 to 100 scale where 0 is no effect and 100 is complete control; read-out: Barnyardgrass plant response rating
Procedure, shortened: as §1

[3] = tested on: ducksalad (Heteranthera limosa); assay: Test B flooded paddy test; settings: Heteranthera limosa, 250 g ai/ha, Flood; 0 to 100 scale where 0 is no effect and 100 is complete control; read-out: Ducksalad plant response rating
Procedure, shortened: as §1

[4] = tested on: ryegrass, Italian (Italian ryegrass, Lolium multiflorum); assay: Test A preemergence; settings: Lolium multiflorum, pre-emergence, 240 h, 0 to 100 scale where 0 is no effect and 100 is complete control, read-out: Ryegrass, Italian plant response rating; for pest or weed control at 31 g/ha: 31 g ai/ha, Preemergence; for pest or weed control at 125 g/ha: 125 g ai/ha, preemergence, approx. 10 d
Procedure, shortened: (§2)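 Preemergence directed soil spray on seeded pots, or postemergence application to plants 2–10 cm, one- to two-leaf. Solvent mixture non-phytotoxic, with surfactant. Scored ~10 d later, visually, 0–100 vs untreated.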

[5] = tested on: pigweed (Amaranthus retroflexus); assay: Test A preemergence; settings: Amaranthus retroflexus, pre-emergence, 240 h, 0 to 100 scale where 0 is no effect and 100 is complete control, read-out: Pigweed plant response rating; for pest or weed control at 31 g/ha: 31 g ai/ha, Preemergence; for pest or weed control at 125 g/ha: 125 g ai/ha, preemergence, approx. 10 d
[6] = tested on: ragweed (common ragweed, Ambrosia elatior); assay: Test A preemergence; settings: Ambrosia artemisiifolia, pre-emergence, 240 h, 0 to 100 scale where 0 is no effect and 100 is complete control, read-out: Ragweed plant response rating; for pest or weed control at 31 g/ha: 31 g ai/ha, Preemergence; for pest or weed control at 125 g/ha: 125 g ai/ha, preemergence, approx. 10 d
Procedure, shortened: as §2

[7] = tested on: giant foxtail (Setaria faberii); assay: Test A preemergence; settings: Setaria faberi, pre-emergence, 240 h, 0 to 100 scale where 0 is no effect and 100 is complete control, read-out: Foxtail, Giant plant response rating; for pest or weed control at 31 g/ha: 31 g ai/ha, Preemergence; for pest or weed control at 125 g/ha: 125 g ai/ha, preemergence, approx. 10 d
Procedure, shortened: as §2

[8] = tested on: barnyardgrass (Echinochloa crus-galli); assay: Test A preemergence; settings: Echinochloa crus-galli, pre-emergence, 240 h, 0 to 100 scale where 0 is no effect and 100 is complete control, read-out: Barnyardgrass plant response rating; for pest or weed control at 31 g/ha: 31 g ai/ha, Preemergence; for pest or weed control at 125 g/ha: 125 g ai/ha, preemergence, approx. 10 d
Procedure, shortened: as §2

Kochia (Kochia scoparia) [9] = assay: Test A preemergence; settings: Bassia scoparia, pre-emergence, 240 h, 0 to 100 scale where 0 is no effect and 100 is complete control, read-out: Kochia plant response rating; for pest or weed control at 31 g/ha: 31 g ai/ha, Preemergence; for pest or weed control at 125 g/ha: 125 g ai/ha, preemergence, approx. 10 d
Procedure, shortened: as §2

[10] = tested on: ryegrass, Italian (Italian ryegrass, Lolium multiflorum); assay: Test A postemergence; settings: Lolium multiflorum, post-emergence, 240 h; for pest or weed control at 125 g/ha: 125 g ai/ha, postemergence, visual injury on 0 to 100 scale (0 no effect, 100 complete control), approx. 10 d, read-out: Ryegrass, Italian plant response rating; for pest or weed control at 31 g/ha: Postemergence, 31 g ai/ha, visual injury after approx. 10 d, 0 to 100 scale, 0 no effect, 100 complete control, read-out: Plant response rating, Ryegrass, Italian
Procedure, shortened: as §2

[11] = tested on: pigweed (Amaranthus retroflexus); assay: Test A postemergence; settings: Amaranthus retroflexus, post-emergence, 240 h; for pest or weed control at 125 g/ha: 125 g ai/ha, postemergence, visual injury on 0 to 100 scale (0 no effect, 100 complete control), approx. 10 d, read-out: Pigweed plant response rating; for pest or weed control at 31 g/ha: Postemergence, 31 g ai/ha, visual injury after approx. 10 d, 0 to 100 scale, 0 no effect, 100 complete control, read-out: Plant response rating, Pigweed
Procedure, shortened: as §2

[12] = tested on: ragweed (common ragweed, Ambrosia elatior); assay: Test A postemergence; settings: Ambrosia artemisiifolia, post-emergence, 240 h; for pest or weed control at 125 g/ha: 125 g ai/ha, postemergence, visual injury on 0 to 100 scale (0 no effect, 100 complete control), approx. 10 d, read-out: Ragweed plant response rating; for pest or weed control at 31 g/ha: Postemergence, 31 g ai/ha, visual injury after approx. 10 d, 0 to 100 scale, 0 no effect, 100 complete control, read-out: Plant response rating, Ragweed
Procedure, shortened: as §2

[13] = tested on: blackgrass (Alopecurus myosuroides); assay: Test A postemergence; settings: Alopecurus myosuroides, post-emergence, 240 h; for pest or weed control at 125 g/ha: 125 g ai/ha, postemergence, visual injury on 0 to 100 scale (0 no effect, 100 complete control), approx. 10 d, read-out: Blackgrass plant response rating; for pest or weed control at 31 g/ha: Postemergence, 31 g ai/ha, visual injury after approx. 10 d, 0 to 100 scale, 0 no effect, 100 complete control, read-out: Plant response rating, Blackgrass
Procedure, shortened: as §2

[14] = tested on: giant foxtail (Setaria faberii); assay: Test A postemergence; settings: Setaria faberi, post-emergence, 240 h; for pest or weed control at 125 g/ha: 125 g ai/ha, postemergence, visual injury on 0 to 100 scale (0 no effect, 100 complete control), approx. 10 d, read-out: Foxtail, Giant plant response rating; for pest or weed control at 31 g/ha: Postemergence, 31 g ai/ha, visual injury after approx. 10 d, 0 to 100 scale, 0 no effect, 100 complete control, read-out: Plant response rating, Foxtail, Giant
Procedure, shortened: as §2

corn (Zea mays) = assay: Test A postemergence; settings: Zea mays, post-emergence, 240 h; for plant injury at 125 g/ha: 125 g ai/ha, postemergence, visual injury on 0 to 100 scale (0 no effect, 100 complete control), approx. 10 d, read-out: Corn plant response rating; for Corn plant response rating (crop injury, 0 = no effect, 100 = complete kill) at 31 g/ha: Postemergence, 31 g ai/ha, visual injury after approx. 10 d, 0 to 100 scale, 100 complete control
Procedure, shortened: as §2

[15] = tested on: Galium (catchweed bedstraw, Galium aparine); assay: Test A postemergence; settings: Galium, post-emergence, 240 h; for pest or weed control at 125 g/ha: 125 g ai/ha, postemergence, visual injury on 0 to 100 scale (0 no effect, 100 complete control), approx. 10 d, read-out: Galium plant response rating; for pest or weed control at 31 g/ha: Postemergence, 31 g ai/ha, visual injury after approx. 10 d, 0 to 100 scale, 0 no effect, 100 complete control, read-out: Plant response rating, Galium
Procedure, shortened: as §2

[16] = tested on: wheat (Triticum aestivum); assay: Test A postemergence; settings: Triticum aestivum, post-emergence, 240 h; for plant injury at 125 g/ha: 125 g ai/ha, postemergence, visual injury on 0 to 100 scale (0 no effect, 100 complete control), approx. 10 d, read-out: Wheat plant response rating; for plant injury at 31 g/ha: Postemergence, 31 g ai/ha, visual injury after approx. 10 d, 0 to 100 scale, 0 no effect, 100 complete control, read-out: Plant response rating, Wheat
Procedure, shortened: as §2

[17] = tested on: barnyardgrass (Echinochloa crus-galli); assay: Test A postemergence; settings: Echinochloa crus-galli, post-emergence, 240 h; for pest or weed control at 125 g/ha: 125 g ai/ha, postemergence, visual injury on 0 to 100 scale (0 no effect, 100 complete control), approx. 10 d, read-out: Barnyardgrass plant response rating; for pest or weed control at 31 g/ha: Postemergence, 31 g ai/ha, visual injury after approx. 10 d, 0 to 100 scale, 0 no effect, 100 complete control, read-out: Plant response rating, Barnyardgrass
Procedure, shortened: as §2

Kochia (Kochia scoparia) [18] = assay: Test A postemergence; settings: Bassia scoparia, post-emergence, 240 h; for pest or weed control at 125 g/ha: 125 g ai/ha, postemergence, visual injury on 0 to 100 scale (0 no effect, 100 complete control), approx. 10 d, read-out: Kochia plant response rating; for pest or weed control at 31 g/ha: Postemergence, 31 g ai/ha, visual injury after approx. 10 d, 0 to 100 scale, 0 no effect, 100 complete control, read-out: Plant response rating, Kochia
Procedure, shortened: as §2

| Compound | pest or weed control at 250 g/ha [1] | pest or weed control at 250 g/ha (rice (Oryra sativa)) | pest or weed control at 250 g/ha [2] | pest or weed control at 250 g/ha [3] | pest or weed control at 31 g/ha [4] | pest or weed control at 125 g/ha [4] | pest or weed control at 31 g/ha [5] | pest or weed control at 125 g/ha [5] | pest or weed control at 31 g/ha [6] | pest or weed control at 125 g/ha [6] | pest or weed control at 31 g/ha [7] | pest or weed control at 125 g/ha [7] | pest or weed control at 31 g/ha [8] | pest or weed control at 125 g/ha [8] | pest or weed control at 31 g/ha (Kochia (Kochia scoparia) [9]) | pest or weed control at 125 g/ha (Kochia (Kochia scoparia) [9]) | pest or weed control at 125 g/ha [10] | pest or weed control at 31 g/ha [10] | pest or weed control at 125 g/ha [11] | pest or weed control at 31 g/ha [11] | other results |
| --- | --- | --- | --- | --- | --- | --- | --- | --- | --- | --- | --- | --- | --- | --- | --- | --- | --- | --- | --- | --- | --- |
| CN1C[C@H](c2csc3c2CCC3)[C@@H](C(=O)Nc2ccccc2S(C)(=O)=O)C1=O [Compound 1082] | 0% | 35% | 0% | 70% | 0% | 0% | 0% | 0% | 0% | 0% | 0% | 0% | 0% | 0% | 0% | 0% | 0% | 0% | 0% | 0% | pest or weed control at 125 g/ha [12]: 0%; pest or weed control at 31 g/ha [12]: 0%; pest or weed control at 125 g/ha [13]: 0%; pest or weed control at 31 g/ha [13]: 0%; pest or weed control at 125 g/ha [14]: 0%; pest or weed control at 31 g/ha [14]: 0%; plant injury at 125 g/ha (corn (Zea mays)): 30%; Corn plant response rating (crop injury, 0 = no effect, 100 = complete kill) at 31 g/ha (corn (Zea mays)): 0%; pest or weed control at 125 g/ha [15]: 0%; pest or weed control at 31 g/ha [15]: 0%; plant injury at 125 g/ha [16]: 0%; plant injury at 31 g/ha [16]: 0%; pest or weed control at 125 g/ha [17]: 30%; pest or weed control at 31 g/ha [17]: 0%; pest or weed control at 125 g/ha (Kochia (Kochia scoparia) [18]): 0%; pest or weed control at 31 g/ha (Kochia (Kochia scoparia) [18]): 0% |
| C=C(C)c1cccc([C@H]2CN(C)C(=O)[C@@H]2C(=O)Nc2ccc(F)c(F)c2F)c1 [Compound 1087] | 0% | 25% | 70% | 30% | 0% | 30% | 0% | 0% | 0% | 0% | 90% | 100% | 0% | 90% | 0% | 60% | 0% | 0% | 30% | 0% | pest or weed control at 125 g/ha [12]: 0%; pest or weed control at 31 g/ha [12]: 0%; pest or weed control at 125 g/ha [13]: 30%; pest or weed control at 31 g/ha [13]: 0%; pest or weed control at 125 g/ha [14]: 60%; pest or weed control at 31 g/ha [14]: 30%; plant injury at 125 g/ha (corn (Zea mays)): 0%; Corn plant response rating (crop injury, 0 = no effect, 100 = complete kill) at 31 g/ha (corn (Zea mays)): 0%; pest or weed control at 125 g/ha [15]: 70%; pest or weed control at 31 g/ha [15]: 30%; plant injury at 125 g/ha [16]: 0%; plant injury at 31 g/ha [16]: 0%; pest or weed control at 125 g/ha [17]: 90%; pest or weed control at 31 g/ha [17]: 20%; pest or weed control at 125 g/ha (Kochia (Kochia scoparia) [18]): 20%; pest or weed control at 31 g/ha (Kochia (Kochia scoparia) [18]): 0% |
